From patent publication US20200040326A1, “METHOD FOR PROVIDING A DNA-ENCODED LIBRARY, DNA-ENCODED LIBRARY AND METHOD OF DECODING A DNA-ENCODED LIBRARY” (TU Dresden, priority 2018, published 2020)

Target: enzyme carbonic anhydrase II (Homo sapiens, UniProt P00918)
Details: substance as DNA conjugate within the DEL; primer pairs 1a/1b (whole library), 2a/2b (CBS), 3a/3b (Theo); small ΔCq reflects large enrichment

How did the “enrichment after selection (from ΔCq, difference in qPCR cycle before and after selection)” value turn out when `Cn1cnc2c1c(=O)[nH]c(=O)n2C` [Theo, theobromine] was run?
Its value is “not enriched”.
